According to patent US9133115B2 (ACHILLION PHARMACEUTICALS, INC., priority 2008, dated 2015):

These molecules were tested on HCV replicon (assay: HCV replicon replication assay (NPT ELISA) in Huh-7 replicon-containing cells). Settings: Hepatitis C virus, 72 h; HCV replicon in Huh-7 cells, three days incubation; read-out: EC50.
Format: cell-based
In short: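 Replication was scored by capture ELISA of neomycin phosphotransferase, whose level tracks replicon replication, after graded compound treatment. The cells were Huh-7 harbouring an HCV-IRES/neo/EMCV-IRES/NS3–NS5B/3′-NTR replicon, plated at 6000-7500 cells/well and dosed 24 h later at 60-70% confluence; interferon alpha was the positive control.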

**Q.** With CC[C@@H](NC(=O)[C@@H]1C[C@@H](Oc2cc(-c3ccccc3)nc3cc(OC)ccc23)CN1C(=O)[C@@H](CC(=O)N1CCCCC1)C(C)(C)C)C(=O)NS(=O)(=O)C1CC1 [Compound 116, (2S,4R)-1-((S)-2-tert-butyl-4-oxo-4-(piperidin-1-yl)butanoyl)-N-((R)-1-(cyclopropanesulfon-amido)-1-oxobutan-2-yl)-4-(7-methoxy-2-phenylquinolin-4-yloxy)pyrrolidine-2-carboxamide] as the molecule, how does the EC50 read?
**A.** Its EC50 is 1000 to 10000 nM.

**Q.** Which EC50 does the source give for C=C[C@H]1C[C@]1(NC(=O)[C@@H]1C[C@@H](Oc2cc(-c3ccccc3)nc3cc(OC)ccc23)CN1C(=O)[C@@H](CC(=O)N1CCCCC1)CC1CCCC1)C(=O)NS(=O)(=O)C1CC1 [Compound 57, (2S,4R)-1-((R)-2-(cyclopentylmethyl)-4-oxo-4-(piperidin-1-yl)butanoyl)-N-((1R,2R)-1-(cyclopropyl-sulfonylcarbamoyl)-2-vinylcyclopropyl)-4-(7-methoxy-2-phenylquinolin-4-yloxy)pyrrolidine-2-carboxamide] here?
**A.** Its EC50 is less than 1000 nM.

**Q.** With C=C[C@@H]1C[C@]1(NC(=O)[C@@H]1C[C@@H](Oc2nc3ccccc3nc2-c2ccccc2)CN1C(=O)[C@@H](CC(=O)N1CCCCC1)C(C)(C)C)C(=O)NS(=O)(=O)C1CC1 [Compound 133, (2S,4R)-1-((S)-2-tert-butyl-4-oxo-4-(piperidin-1-yl)butanoyl)-N-((1R,2S)-1-(cyclo-propylsulfonyl-carbamoyl)-2-vinyl-cyclopropyl)-4-(3-phenylquinoxalin-2-yloxy)pyrrolidine-2-carboxamide] as the molecule, how does the EC50 read?
**A.** Its EC50 is 1000 to 10000 nM.

**Q.** Which EC50 does the source give for C=C[C@@H]1C[C@]1(NC(=O)[C@@H]1C[C@@H](Oc2cc(-c3ccccc3)nc3cc(OC)ccc23)CN1C(=O)[C@@H](CC(=O)N1CCCCC1)C(C)(C)C)C(=O)NS(=O)(=O)Cc1ccccc1 [Compound 64, (2S,4R)-N-((1R,2S)-1-(benzylsulfonyl-carbamoyl)-2-vinylcyclopropyl)-1-((S)-2-tert-butyl-4-oxo-4-(piperidin-1-yl)butanoyl)-4-(7-methoxy-2-phenylquinolin-4-yloxy)pyrrolidine-2-carboxamide] here?
**A.** Its EC50 is 1000 to 10000 nM.

**Q.** How did the EC50 turn out when C=C[C@@H]1C[C@]1(NC(=O)[C@@H]1C[C@@H](Oc2cc(-c3ccccn3)nc3cc(OC)ccc23)CN1C(=O)[C@@H](CC(=O)N1CC2CC3CC(C2)CC1C3)C(C)(C)C)C(=O)NS(=O)(=O)C1CC1 [Compound 221] was run?
**A.** The EC50 was greater than 10000 nM.

**Q.** For C=C[C@@H]1C[C@]1(NC(=O)[C@@H]1C[C@@H](Oc2nc(-c3ccccn3)nc3ccsc23)CN1C(=O)[C@@H](CC(=O)N1CCCCC1)C(C)(C)C)C(=O)NS(=O)(=O)C1CC1 [Compound 122, (2S,4R)-1-((S)-2-tert-butyl-4-oxo-4-(piperidin-1-yl)butanoyl)-N-((1R,2S)-1-(cyclopropylsulfonyl-carbamoyl)-2-vinylcyclopropyl)-4-(2-(pyridin-2-yl)thieno[3,2-d]pyrimidin-4-yloxy)pyrrolidine-2-carboxamide], which EC50 is on record?
**A.** The EC50 was 1000 to 10000 nM.

**Q.** C=CC1C[C@]1(NC(=O)[C@@H]1C[C@@H](Oc2cc(-c3ccccc3)nc3cc(OC)ccc23)CN1C(=O)[C@@H](CC(=O)N1CCN(C(=O)OC(C)(C)C)CC1)C(C)(C)C)C(=O)NS(=O)(=O)C1CC1 (stereo partly drawn) [Compound 164, tert-butyl 4-((S)-3-((2S,4R)-2-((1R,2S)-1-(cyclopropyl-sulfonylcarbamoyl)-2-vinylcyclopropyl-carbamoyl)-4-(7-methoxy-2-phenylquinolin-4-yloxy)pyrrolidine-1-carbonyl)-4,4-dime-thylpentanoyl)piper-azine-1-carboxylate] was tested. Which EC50 did it give?
**A.** Its EC50 is less than 1000 nM.

**Q.** For COc1ccc2c(O[C@@H]3C[C@@H](C(=O)N[C@H](C(=O)NS(=O)(=O)C4CC4)C(C)(C)C)N(C(=O)[C@@H](CC(=O)N4CCCCC4)C(C)(C)C)C3)cc(-c3ccccc3)nc2c1 [Compound 115, (2S,4R)-1-((S)-2-tert-butyl-4-oxo-4-(piperidin-1-yl)butanoyl)-N-((S)-1-(cyclopropanesulfon-amido)-3,3-dimethyl-1-oxobutan-2-yl)-4-(7-methoxy-2-phenylquinolin-4-yloxy)pyrrolidine-2-carboxamide], which EC50 is on record?
**A.** Its EC50 is 1000 to 10000 nM.

**Q.** With C=C[C@@H]1C[C@]1(NC(=O)[C@@H]1C[C@@H](Oc2cc(-c3ccccn3)nc3c(Cl)c(OC)ccc23)CN1C(=O)[C@@H](CC(=O)N1CCC(F)(F)C1)C(C)(C)C)C(=O)NS(=O)(=O)C1CC1 [Compound 206, (2S,4R)-1-((S)-2-tert-butyl-4-(3,3-difluoropyrrolidin-1-yl)-4-oxobutanoyl)-4-(8-chloro-7-methoxy-2-(pyridin-2-yl)quinolin-4-yloxy)-N-((1R)-1-(cyclopropylsulfonyl-carbamoyl)-2-vinylcyclopropyl)pyr-rolidine-2-carboxamide] as the molecule, how does the EC50 read?
**A.** The EC50 was less than 1000 nM.

**Q.** Which EC50 does the source give for C=C[C@@H]1C[C@]1(NC(=O)[C@@H]1C[C@@H](Oc2cc(-c3ccccc3)nc3cc(OC)ccc23)CN1C(=O)[C@@H](CC(=O)N1CCCCC1)C(C)(C)C)C(=O)NS(=O)(=O)C1CCCC1 [Compound 105, (2S,4R)-1-((S)-2-tert-butyl-4-oxo-4-(piperidin-1-yl)butanoyl)-N-((1R,2S)-1-(cyclopentyl-sulfonylcarbamoyl)-2-vinylcyclopropyl)-4-(7-methoxy-2-phenylquinolin-4-yloxy)pyrrolidine-2-carboxamide] here?
**A.** The EC50 was less than 1000 nM.

**Q.** C=C[C@@H]1C[C@]1(NC(=O)[C@@H]1C[C@@H](Oc2nccc3cc(OC)ccc23)CN1C(=O)[C@@H](CC(=O)N1CCCCC1)C(C)(C)C)C(=O)NS(=O)(=O)C1CC1 [Compound 101, (2S,4R)-1-((S)-2-tert-butyl-4-oxo-4-(piperidin-1-yl)butanoyl)-N-((1R,2S)-1-(cyclo-propylsulfonyl-carbamoyl)-2-vinylcyclopropyl)-4-(6-methoxyisoquinolin-1-yloxy)pyrrolidine-2-carboxamide] was tested. Which EC50 did it give?
**A.** Its EC50 is less than 1000 nM.

**Q.** How did the EC50 turn out when C=C[C@@H]1C[C@]1(NC(=O)[C@@H]1C[C@@H](NC(=O)n2c3ccccc3c3ccccc32)CN1C(=O)[C@@H](CC(=O)N1CCC(F)(F)C1)C(C)(C)C)C(=O)NS(=O)(=O)C1CC1 [Compound 186, N-((3R,5S)-1-((S)-2-tert-butyl-4-(3,3-difluoropyrrolidin-1-yl)-4-oxobutanoyl)-5-((1R,2S)-1-(cyclopropylsulfonyl-carbamoyl)-2-vinyl-cyclopropyl-carbamoyl)pyrrolidin-3-yl)-9H-carbazole-9-carboxamide] was run?
**A.** Its EC50 is less than 1000 nM.

**Q.** C=CC1CC1(NC(=O)C1C[C@@H](Oc2cc(-c3ccccc3)nc3cc(OC)ccc23)CN1C(=O)[C@@H](CC(=O)N1CCCCC1)Cc1ccccc1)C(=O)NS(=O)(=O)C1CC1 (stereo partly drawn) [Compound 52, (4R)-1-((R)-2-benzyl-4-oxo-4-(piperidin-1-yl)butanoyl)-N-(1-(cyclopropyl-sulfonylcarbamoyl)-2-vinylcyclopropyl)-4-(7-methoxy-2-phenylquinolin-4-yloxy)pyrrolidine-2-carboxamide] was tested. Which EC50 did it give?
**A.** The EC50 was less than 1000 nM.

**Q.** With C=C[C@@H]1C[C@]1(NC(=O)[C@@H]1C[C@@H](Oc2cc(-c3ccccc3)nc3cc(OC)ccc23)CN1C(=O)[C@@H](CC(=O)N1CCC1c1cccc(OC)c1)C(C)(C)C)C(=O)NS(=O)(=O)C1CC1 (stereo partly drawn) [Compound 228, (2S,4R)-1-((2S)-2-tert-butyl-4-(2-(3-methoxyphenyl)aze-tidin-1-yl)-4-oxobutanoyl)-N-((1R)-1-(cyclopropyl-sulfonylcarbamoyl)-2-vinylcyclopropyl)-4-(7-methoxy-2-phenylquinolin-4-yloxy)pyrrolidine-2-carboxamide] as the molecule, how does the EC50 read?
**A.** The EC50 was less than 1000 nM.

**Q.** For C=C[C@@H]1C[C@]1(NC(=O)[C@@H]1C[C@@H](Oc2cc(-c3ccccc3)nc3cc(OC)ccc23)CN1C(=O)[C@@H](CC(=O)N1CCCCC1)C(C)(C)C)C(=O)NS(=O)(=O)C(F)(F)F [Compound 66, (2S,4R)-1-((S)-2-tert-butyl-4-oxo-4-(piperidin-1-yl)butanoyl)-4-(7-methoxy-2-phenylquinolin-4-yloxy)-N-((1R,2S)-1-(trifluoromethyl-sulfonylcarbamoyl)-2-vinylcyclo-propyl)pyrrolidine-2-carboxamide], which EC50 is on record?
**A.** The EC50 was 1000 to 10000 nM.

**Q.** For C=C[C@@H]1C[C@]1(NC(=O)[C@@H]1C[C@@H](Oc2cc(-c3ccccc3)nc3cc(OC)ccc23)CN1C(=O)[C@@H](CC(=O)N1CC2C3CCC(C)(O3)C2C1)C(C)(C)C)C(=O)NS(=O)(=O)C1CC1 (stereo partly shown) [Compound 170], which EC50 is on record?
**A.** The EC50 was less than 1000 nM.

**Q.** With C=C[C@@H]1C[C@]1(NC(=O)[C@@H]1C[C@@H](Oc2cc(-c3ccccn3)nc3c4c(ccc23)OCC4)CN1C(=O)[C@@H](CC(=O)N1CCCCC1)C(C)(C)C)C(=O)NS(=O)(=O)C1CC1 [Compound 152, (2S,4R)-1-((S)-2-tert-butyl-4-oxo-4-(piperidin-1-yl)butanoyl)-N-((1R,2S)-1-(cyclo-propylsulfonyl-carbamoyl)-2-vinylcyclopropyl)-4-(2-(pyridin-2-yl)-8,9-dihydrofuro[2,3-h]quinolin-4-yloxy)pyrrolidine-2-carboxamide] as the molecule, how does the EC50 read?
**A.** The EC50 was less than 1000 nM.

**Q.** Which EC50 does the source give for C=C[C@@H]1C[C@]1(NC(=O)[C@@H]1C[C@@H](Oc2cc(-c3ccccn3)nc3cc(OC)ccc23)CN1C(=O)[C@@H](CC(=O)N1CCOCC1)C(C)(C)C)C(=O)NS(=O)(=O)C1CC1 [Compound 166, (2S,4R)-1-((S)-2-tert-butyl-4-morpholino-4-oxobutanoyl)-N-((1R,2S)-1-(cyclopropylsulfonyl-carbamoyl)-2-vinylcyclopropyl)-4-(7-methoxy-2-(pyridin-2-yl)quinolin-4-yloxy)pyrrolidine-2-carboxamide] here?
**A.** The EC50 was less than 1000 nM.

**Q.** Which EC50 does the source give for C=CC1CC1(NC(=O)C1C[C@@H](Oc2cc(-c3ccccc3)nc3cc(OC)ccc23)CN1C(=O)[C@H](CC(=O)N1CCCCC1)CC(C)C)C(=O)NS(=O)(=O)C1CC1 (stereo partly drawn) [Compound 51, (4R)-N-(1-(cyclopropyl-sulfonylcarbamoyl)-2-vinylcyclopropyl)-4-(7-methoxy-2-phenylquinolin-4-yloxy)-1-((S)-4-methyl-2-(2-oxo-2-(piperidin-1-yl)ethyl)pentano-yl)pyrrolidine-2-carboxamide] here?
**A.** Its EC50 is 1000 to 10000 nM.
